target: CDK2 (UniProt P24941); assay: Enzyme Assay; details: not given

Row | Ki | SMILES
1 | 0.48 nM | CC(C)(O)CCCCNS(=O)(=O)c1ccc(Nc2nc(N)c(C(=O)c3c(F)cccc3F)s2)cc1
2 | 4.9 nM | CCOC(=O)CNS(=O)(=O)c1ccc(Nc2nc(N)c(C(=O)c3c(F)cccc3F)s2)cc1
3 | 13 nM | Nc1nc(Nc2ccc(S(=O)(=O)NCC3CCNCC3)cc2)sc1C(=O)c1c(F)cccc1F
4 | 3.6 nM | Nc1nc(Nc2ccc(S(=O)(=O)NCCCc3ccccc3)cc2)sc1C(=O)c1c(F)cccc1F
5 | < 5 nM | CCCOCCNS(=O)(=O)c1ccc(Nc2nc(N)c(C(=O)c3c(F)cccc3F)s2)cc1
6 | 4.6 nM | Nc1nc(Nc2ccc(S(=O)(=O)NCc3cc4ccccc4o3)cc2)sc1C(=O)c1c(F)cccc1F
7 | < 10 nM | Nc1nc(Nc2ccc(S(=O)(=O)NCCc3cccc(Cl)c3)cc2)sc1C(=O)c1c(F)cccc1F
8 | 6.9 nM | Cn1cncc1CNS(=O)(=O)c1ccc(Nc2nc(N)c(C(=O)c3c(F)cccc3F)s2)cc1
9 | 3.7 nM | CC(C)CCCCNS(=O)(=O)c1ccc(Nc2nc(N)c(C(=O)c3c(F)cccc3F)s2)cc1
10 | < 10 nM | Cc1cc(F)c(C(=O)c2sc(Nc3ccc(S(=O)(=O)NCc4ccc(C)o4)cc3)nc2N)c(F)c1

same assay, conditions: concentration not given here

Row | inhibition | SMILES
11 | 16% | CN(CCc1ccccn1)S(=O)(=O)c1ccc(Nc2nc(N)c(C(=O)c3c(F)cccc3F)s2)cc1
12 | 14% | Nc1nc(Nc2ccc(S(=O)(=O)N3CCN(CC(=O)N4CCCC4)CC3)cc2)sc1C(=O)c1c(F)cccc1F
13 | 18% | CN1CCN(S(=O)(=O)c2ccc(Nc3nc(N)c(C(=O)c4c(F)cccc4F)s3)cc2)CC1
14 | 23% | Nc1nc(Nc2ccc(S(=O)(=O)N3CCSCC3)cc2)sc1C(=O)c1c(F)cccc1F
15 | -1% | Nc1nc(Nc2ccc(S(=O)(=O)N3CCN(CCOCCO)CC3)cc2)sc1C(=O)c1c(F)cccc1F
16 | 12% | CN(Cc1cccnc1)S(=O)(=O)c1ccc(Nc2nc(N)c(C(=O)c3c(F)cccc3F)s2)cc1
17 | 20% | CN(CCC1OCCO1)S(=O)(=O)c1ccc(Nc2nc(N)c(C(=O)c3c(F)cccc3F)s2)cc1
18 | 4% | COCCN(C)S(=O)(=O)c1ccc(Nc2nc(N)c(C(=O)c3c(F)cccc3F)s2)cc1
19 | 9% | CN(CCc1ccccc1)S(=O)(=O)c1ccc(Nc2nc(N)c(C(=O)c3c(F)cccc3F)s2)cc1
20 | 37% | Nc1nc(Nc2ccc(S(=O)(=O)N3CCN(c4ccc(F)cc4)CC3)cc2)sc1C(=O)c1c(F)cccc1F
21 | 28% | CN(CCCCCCO)S(=O)(=O)c1ccc(Nc2nc(N)c(C(=O)c3c(F)cccc3F)s2)cc1
22 | 27% | Nc1nc(Nc2ccc(S(=O)(=O)N3CCOCC3)cc2)sc1C(=O)c1c(F)cccc1F
23 | 27% | CN(CCC#N)S(=O)(=O)c1ccc(Nc2nc(N)c(C(=O)c3c(F)cccc3F)s2)cc1
24 | -1% | Nc1nc(Nc2ccc(S(=O)(=O)N(CCO)CCO)cc2)sc1C(=O)c1c(F)cccc1F
25 | 6% | C=CCN1CCN(S(=O)(=O)c2ccc(Nc3nc(N)c(C(=O)c4c(F)cccc4F)s3)cc2)CC1
26 | 21% | Nc1nc(Nc2ccc(S(=O)(=O)N3CCC(CCO)CC3)cc2)sc1C(=O)c1c(F)cccc1F

Row | inhibition | SMILES
27 | 28% | CN(CCO)S(=O)(=O)c1ccc(Nc2nc(N)c(C(=O)c3c(F)cccc3F)s2)cc1
28 | 21% | CCN(CC)CCCN(C)S(=O)(=O)c1ccc(Nc2nc(N)c(C(=O)c3c(F)cccc3F)s2)cc1
29 | 24% | CCN(CCO)S(=O)(=O)c1ccc(Nc2nc(N)c(C(=O)c3c(F)cccc3F)s2)cc1
30 | 30% | Nc1nc(Nc2ccc(S(=O)(=O)N3CCCC(CO)C3)cc2)sc1C(=O)c1c(F)cccc1F (stereo unspecified)
31 | 8% | N#CCCN(C1CC1)S(=O)(=O)c1ccc(Nc2nc(N)c(C(=O)c3c(F)cccc3F)s2)cc1
32 | 9% | CN1CCC(N(C)S(=O)(=O)c2ccc(Nc3nc(N)c(C(=O)c4c(F)cccc4F)s3)cc2)CC1
33 | 11% | Nc1nc(Nc2ccc(S(=O)(=O)N3CCN(CCN4CCOCC4)CC3)cc2)sc1C(=O)c1c(F)cccc1F
34 | 19% | CN(CCc1ccncc1)S(=O)(=O)c1ccc(Nc2nc(N)c(C(=O)c3c(F)cccc3F)s2)cc1
35 | 8% | COCCN(CCOC)S(=O)(=O)c1ccc(Nc2nc(N)c(C(=O)c3c(F)cccc3F)s2)cc1
36 | 26% | CN(C)CCN(C)S(=O)(=O)c1ccc(Nc2nc(N)c(C(=O)c3c(F)cccc3F)s2)cc1
37 | 27% | CCN(CC)CCN(C)S(=O)(=O)c1ccc(Nc2nc(N)c(C(=O)c3c(F)cccc3F)s2)cc1
38 | 15% | CN(CC(O)CO)S(=O)(=O)c1ccc(Nc2nc(N)c(C(=O)c3c(F)cccc3F)s2)cc1 (stereo unspecified)
39 | 22% | CN1CCC(N(C)S(=O)(=O)c2ccc(Nc3nc(N)c(C(=O)c4c(F)cccc4F)s3)cc2)C1 (stereo unspecified)
40 | 40% | NC(=O)C1CCN(S(=O)(=O)c2ccc(Nc3nc(N)c(C(=O)c4c(F)cccc4F)s3)cc2)CC1
41 | 18% | COC(=O)CN(C)S(=O)(=O)c1ccc(Nc2nc(N)c(C(=O)c3c(F)cccc3F)s2)cc1

From the Kinase Knowledgebase extract (Sharma et al. 2016)
